Values joined by “and” are separate entries in the source; they are usually repeats but may differ in a detail not shown here. Identical values can stand only once.
Tests used:
TGFβ gene expression = assay: RT-PCR for TGFβ gene expression in kidney graft (Example 1); type: in vivo, rat; conditions: 10 and 20 mg/kg PO day 0-9; day 90 after grafting; vs untreated allograft control
Method: Inbred male Lewis rats (LEW) (RT1^I), weighing 250-300 g, were used as kidney transplantation recipients. Inbred male LEW and Fisher (F344) (RT1^IvI), weighing 250-350 g, were used as isograft and allograft donor rats, respectively. Kidney transplantation was performed using the modified technique of Fisher and Lee. [Fisher et al., Surgery, 58:904-914, 1965] Survival of kidney transplant was measured as time of recipient rat survival. Blood and 24 hr urine samples were collected once a week for plasma creatinine, proteinuria, and the measurement of antibody titer against donor glomeruli basement membrane protein (GBM). Kidney grafts were harvested on the 90th day posttranspalantation and subjected to histology and reverse transcriptase-polymerase chain reaction (RT-PCR) analysis. The compound (I), at doses of 10 mg/kg and 20 mg/kg were administered orally to recipient rats daily from day 0 to day 9 after transplantation. Control isograft and allograft recipients received no drug after transplantation. TGFβ has been considered to play a crucial role for causing chronic allograft rejection. Kidney graft tissues harvested from recipients on day 90th after transplantation were subjected to RT-PCR for TGFβ gene expression. Total RNA was extracted from transplanted kidney tissues by TRIZOL. […]

[1] = system: F344 kidney allograft in LEW recipient rats; assay: Kidney allograft survival, prevention of chronic rejection (Example 1); type: in vivo, rat; conditions: 0-9 day; for Survival day: individual rats, n=5; for Survival rate (more than 90 days): untreated allograft 40%
Method: Inbred male Lewis rats (LEW) (RT1^I), weighing 250-300 g, were used as kidney transplantation recipients. Inbred male LEW and Fisher (F344) (RT1^IvI), weighing 250-350 g, were used as isograft and allograft donor rats, respectively. Kidney transplantation was performed using the modified technique of Fisher and Lee. [Fisher et al., Surgery, 58:904-914, 1965] Survival of kidney transplant was measured as time of recipient rat survival. Blood and 24 hr urine samples were collected once a week for plasma creatinine, proteinuria, and the measurement of antibody titer against donor glomeruli basement membrane protein (GBM). Kidney grafts were harvested on the 90th day posttranspalantation and subjected to histology and reverse transcriptase-polymerase chain reaction (RT-PCR) analysis. The compound (I), at doses of 10 mg/kg and 20 mg/kg were administered orally to recipient rats daily from day 0 to day 9 after transplantation. Control isograft and allograft recipients received no drug after transplantation.

[2] = Compound (I) 10 mg/kg PO, 10 mg/kg

C#CCC/C(O)=C(\C#N)C(=O)Nc1ccc(C(F)(F)F)cc1 [Compound (I), (2Z)-2-cyano-3-hydroxy-N-[4-(trifluoromethyl)phenyl]-2-hepten-6-ynamide]
TGFβ gene expression (mRNA) in kidney graft (TGFβ gene expression): inhibited TGFβ gene expression in a dose-dependent manner
Survival day [1, 2]: 28 days and > 90 days
Survival rate (more than 90 days) [1, 2]: 80%
Survival day ([1]; Compound (I) 20 mg/kg PO): >90(5) day
Survival rate (more than 90 days) ([1]; Compound (I) 20 mg/kg PO, 20 mg/kg): 100%

— patent US20060211725A1, “Use” (Astellas Pharma Inc., priority 2002, published 2006)
